The source of these data is patent US11549947B2, “Multiplexed detection with isotope-coded reporters” (Massachusetts Institute of Technology, priority 2011, dated 2023).

Details of data set [1]: species or system FVB/NJ mice. The following applies: mouse, in vivo, iv. The source says: Using this assay, increases in sample fluorescence were observed upon proteolytic cleavage of the tethered fluorescent peptides resulting from abrogation of homoquenching between adjacent fluorophores. Initial reaction velocities were extracted for each protease-substrate combination and compiled for comparative analysis (FIG. 10a,b). FIG. 10 illustrates selecting protease-sensitive substrates for NW-chaperoned urinary trafficking. Kinetics of peptide-NW cleavage monitored by fluorimetry are shown in (a). Specific protease-substrate combinations led to rapid activation. […] IVIS in vivo imaging of DDC treated and control animals following intravenous injection of VivoTag-680 labeled Glu-fib peptides, (d) peptide-free NWs, or (e) peptide-conjugated NWs.

The test system of data set [2] is hepatic fibrosis and resolution in DDC-treated mice. In words: iCORE LC MS/MS analysis of urinary reporters after i.v. NW cocktail, DDC liver fibrosis model. The data set is classed as in vivo, FVB/NJ mice. The following applies: for individual iCORE peak intensity (DDC over control) relative to pretreatment: DDC-treated mice, NWs administered at 0, 3, 7 and 11 weeks, urine, n=10. The protocol:
(§1) Mice were intravenously infused with 200 μl of PBS containing equimolar NW cocktails (5 μM per peptide) with EDTA-free protease inhibitor tablets (Roche) to isolate MMP activity. Mice were placed over 96-well plates surrounded by cylindrical sleeves for urine collection. To prevent further reporter degradation, voided samples were spiked with EDTA+ complete protease inhibitors (Roche) immediately after collection. To quantify urinary fluorescence, 2 μL of each sample was incubated with magnetic beads (Dynal) coated with α-FITC antibodies (Genetex) in 50 μl binding buffer ([…], 0.01% CHAPS) for 1 hr at 37° C., washed twice with 100 mM NH4OAc, and eluted twice with 15 μl of 5% acetic acid. Samples were neutralized with 2 M Tris and quantified by microplate fluorimetry. For iCORE analysis, samples were irradiated with UV for 30 min. before TCA precipitation (20% final volume) to remove proteins. Soluble fractions were applied to C18 reverse phase columns (Nest Group) and eluted via step gradients of 20% ACN increments in 0.1% formic acid. 60% ACN fractions containing Glu-fib peptides were collected and dried by vacuum centrifuge.
Peptide samples were reconstituted in 5% ACN, 0.1% formic acid and analyzed at MIT or the Taplin MS facility (Harvard Medical School). At MIT, peptides were captured and eluted from a C18 nanoflow HPLC column (75 μm internal diameter Magic C18 AQ, Michrom BioResources, Inc.) at a flow rate of 300 nL/min using water-acetonitrile solvent system with 0.1% formic acid. ESI mass spectrometry was carried out on a QSTAR Elite QTOF mass spectrometer (AB Sciex). At Harvard, samples are reconstituted in 2.5% ACN, 0.1% formic acid. Samples are injected using a Famos autosampler (LC Packings) into an Agilent 1100 HPLC prior to mass analysis on a LTQ-Orbitrap (Thermo Electron). To account for discrepancies in urine volumes and concentration, peak intensities of individual reporters were scaled relative to its respective total iCORE ion current before normalization against control samples to account for technical and age-related variations.
Pearson's correlation coefficients between different protease profiles were calculated with MatLAB. ANOVA analyses were calculated with GraphPad 5.0 (Prism). For ROC analysis, risk score functions were first estimated by logistic regression on individual biomarkers followed by ROC curve analyses of single or biomarker combinations (SigmaPlot).
Thus, to monitor the transitions between fibrosing and resolving disease, NWs were administered at 0, 3, 7, and 11 weeks into DDC-treated and age-matched control animals followed by iCORE MS/MS analysis.
The diagnostic performance of these biomarkers was determined by performing receiver operating characteristic (ROC) analyses for individual as well as biomarker combinations. ROC curves characterize the sensitivity and specificity of a biomarker as a function of the discrimination threshold by returning the area under the curve (AUC) as a performance metric with a baseline AUC of 0.5 representing a random biomarker classifier (dashed line, FIG. 11g,h).

For data set [3], the system named is LS174T xenograft tumors. Description: iCORE MS/MS analysis of urinary reporters after i.v. NW library, colorectal tumor xenograft model. The data set is classed as in vivo, athymic nude mice. The following applies: LS 174T tumor vs control, day 10; n=16 (8 ctrl, 8 tumor). The protocol:
as §1, with “60% ACN fractions containing Glu-fib peptides were collected and dried by vacuum centrifuge.” left out
Peptide samples were reconstituted in 5% ACN, 0.1% formic acid and analyzed at MIT or the Taplin MS facility (Harvard Medical School). […]
Pearson's correlation coefficients between different protease profiles were calculated with MatLAB. ANOVA analyses were calculated with GraphPad 5.0 (Prism). […]

A further data set has as its system liver collagen. The following applies: mouse, in vivo.
The subject of data set [4] is LS174T xenograft tumors. In words: Serum CEA by ELISA in tumor animals. The format is in vivo, athymic nude mice. The method, then: To quantify hepatic collagen, tissue from the right and left lobes (250-300 mg) were hydrolyzed in 5 ml of 6 N HCl at 110° C. for 16 hours followed by hydroxyproline quantification as previously described.^43 To quantify CEA, blood was collected from tumor animals into Capiject microtubes (Terumo) to isolate serum before ELISA analysis (Calbiotech).
Here, it was investigated whether panels of synthetic urinary biomarkers could be readily adapted to allow earlier and more accurate detection of cancer compared with single clinical blood biomarkers, e.g., because nanoparticles can be passively targeted to tumors to sample proteases through fenestrated angiogenic tumor vessels.^16. In order to explore this concept, athymic nude mice were used bearing LS174T xenograft tumors, a human colorectal cancer (CRC) cell line^38 that secretes the blood biomarker carcinoembryonic antigen (CEA) as a model system (FIG. 22). […] Following implantation, tumor engraftment was monitored by sampling serum every 3 days and analyzing for CEA by ELISA (FIG. 23b,c). […] Tumors permitted to grow further were readily detected by CEA analysis (day 13 and 16), representing a limit of detection of ˜330 mm3 (d ˜8.6 mm) (**P<0.01, Two way ANOVA, n=5). […] To determine the full diagnostic potential of multiplexed analysis, individual biomarkers were quantified by iCORE MS/MS.
In general terms: In an ELISA, binding on a coated surface is turned into a signal by an enzyme label.

Experimental for liver collagen: In vivo imaging. […] FVB/NJ mice (Jackson Labs) were fed with 0.1% w/w DDC (Sigma) rodent chow for three weeks (Research Diets). Fibrotic and age control animals were i.v. infused with VivoTag-680 labeled reagents and visualized by IVIS imaging (Xenogen).
For in situ zymography, fibrotic sections were covered with 90 μl solution of 0.5% w/v low melt agarose (Sigma) in MMP activation buffer (50 mM Tris, 150 NaCl, 5 mM CaCl2, 0.025% Brij 35, pH 7.5) with 10 μl of DQ-gelation (1 mg/ml, Invitrogen) and Hoechst dye at 37° C. Slides were solidified at 4° C. and then incubated at room temperature overnight to promote gelation proteolysis by tissue proteases. To quantify hepatic collagen, tissue from the right and left lobes (250-300 mg) were hydrolyzed in 5 ml of 6 N HCl at 110° C. for 16 hours followed by hydroxyproline quantification as previously described.^43 To quantify CEA, blood was collected from tumor animals into Capiject microtubes (Terumo) to isolate serum before ELISA analysis (Calbiotech). For immunofluorescence analysis, equimolar NW cocktails (5 μM/peptide) were administered in Fibrotic FVB/NJ or tumor bearing Nude mice. After perfusion, livers or tumors were fixed in 4% PFA, froze for sectioning, and stained for F4/80 (AbD Serotec), MMP-9 (R&D Biosystems), CD31 (Santa Cruz Biotechnologies) and/or FITC (Genetex) before analyzed by fluorescence microscopy (Nikon Eclipse Ti). […]

With “EGVNDNEEGFFSAR [Glu-fib, prototypic urinary marker peptide]”, in data set [1], the liver homing result is “undetectable” and the “urinary filtration / urinary fluorescence” value was “efficiently filtered into urine”.

Regarding “eG^+6Vndnee^+2GFfs^+1Ar-X-K(FAM)GGPWGIWGQGC-NW [Biomarker G4]”, the “individual iCORE peak intensity (DDC over control) relative to pretreatment” value in data set [2] was “strongly increased relative to pretreatment baselines”.

In the case of “e^+3G^+6VndneeGFfsAr-X-K(FAM)GGPQGIWGQC-NW [Biomarker G1]”, the “individual iCORE peak intensity (DDC over control) relative to pretreatment” value in data set [2] is “did not deviate from initial pretreatment activities”. The “ROC area under the curve (AUC), resolving biomarkers” value in data set [2] (resolving time frame of 7-11 weeks, baseline AUC 0.5) is 0.73. Moreover, the “ROC area under the curve (AUC), tumor biomarkers” value in the data set with LS174T xenograft tumors [3] is reported as 0.78.

“e^+3GVndneeG^+6FfsAr-X-K(FAM)GGPLGVRGKC-NW [Biomarker G7]”: the “individual iCORE peak intensity (DDC over control) relative to pretreatment” value in data set [2] is recorded as “elevating sharply at week 3 followed by a rapid reversal at week 7”.

Regarding “e^+1GVndnee^+2G^+6FfsAr-X-K(FAM)GGfPRSGGGC-NW [Biomarker G9]”, in data set [2], the “individual iCORE peak intensity (DDC over control) relative to pretreatment” value is “did not deviate from initial pretreatment activities”.

In the case of “e^+2GVndneeG^+6Ffs^+1Ar-X-K(FAM)GGf(Pip)RSGGGC-NW [Biomarker G8]”, in data set [2], the “individual iCORE peak intensity (DDC over control) relative to pretreatment” value was “did not deviate from initial pretreatment activities”.

On to “eGVndnee^+3G^+6FfsAr-X-K(FAM)GGf(Pip)KSGGGC-NW [Biomarker G10]”, for which the “individual iCORE peak intensity (DDC over control) relative to pretreatment” value in data set [2] is “did not deviate from initial pretreatment activities”.

In the case of “3,5-diethoxycarbonyl-1,4-dihydrocollidine [DDC]”, the “drop in liver collagen” value with liver collagen is given as roughly 30%.

On to “eG^+5VndneeGFfs^+4Ar-X-K(FAM)GGPVPLSLVMC-NW [Biomarker G5]”, for which the “individual iCORE peak intensity (DDC over control) relative to pretreatment” value in data set [2] is “significantly decreasing at week 3”. For the same molecule, the “ROC area under the curve (AUC), fibrosing biomarkers” value in data set [2] (fibrosing window of 0-3 weeks, baseline AUC 0.5) came to 0.96.

With “e^+3G^+1Vndnee^+1GFfs^+4Ar-X-K(FAM)GGPLGLRSWC-NW [Biomarker G6]”, in data set [2], the “individual iCORE peak intensity (DDC over control) relative to pretreatment” value is reported as “significantly decreasing at week 3”.

Consider “e^+2G^+6Vndnee^+1GFfsAr-X-K(FAM)GGLVPRGSGC-NW [Biomarker G2]”, for which, in data set [2], the “individual iCORE peak intensity (DDC over control) relative to pretreatment” value was “did not deviate from initial pretreatment activities”.

With “e^+1G^+6Vndnee^+2GFfsAr-X-K(FAM)GGPVGLIGC-NW [Biomarker G3]”, the “individual iCORE peak intensity (DDC over control) relative to pretreatment” value in data set [2] was “strongly increased relative to pretreatment baselines”.

B1: serum CEA: blood biomarker carcinoembryonic antigen secreted by LS174T cells (protein, UniProt P06731 35-685, looked up)
Cell adhesion molecule CEACAM5: KLTIESTPFNVAEGKEVLLLVHNLPQHLFGYSWYKGERVDGNRQIIGYVIGTQQATPGPAYSGREIIYPNASLLIQNIIQNDTGFYTLHVIKSDLVNEEATGQFRVYPELPKPSISSNNSKPVEDKDAVAFTCEPETQDATYLWWVNNQSLPVSPRLQLSNGNRTLTLFNVTRNDTASYKCETQNPVSARRSDSVILNVLYGPDAPTISPLNTSYRSGENLNLSCHAASNPPAQYSWFVNGTFQQSTQELFIPNITVNNSGSYTCQAHNSDTGLNRTTVTTITVYAEPPKPFITSNNSNPVEDEDAVALTCEPEIQNTTYLWWVNNQSLPVSPRLQLSNDNRTLTLLSVTRNDVGPYECGIQNELSVDHSDPVILNVLYGPDDPTISPSYTYYRPGVNLSLSCHAASNPPAQYSWLIDGNIQQHTQELFISNITEKNSGLYTCQANNSASGHSRTTVKTITVSAELPKPSISSNNSKPVEDKDAVAFTCEPEAQNTTYLWWVNGQSLPVSPRLQLSNGNRTLTLFNVTRNDARAYVCGIQNSVSANRSDPVTLDVLYGPDTPIISPPDSSYLSGANLNLSCHSASNPSPQYSWRINGIPQQHTQVLFIAKITPNNNGTYACFVSNLATGRNNSIVKSITVSASGTSPGLSA
As for B1, in the data set on LS174T xenograft tumors [4] (day 10), the “ROC area under the curve (AUC), serum CEA” value stood at 0.61. The “limit of detection (tumor burden) by CEA analysis” value in the data set on LS174T xenograft tumors [4] (day 13 and 16) is roughly 330 mm3.
